Details: in vivo

Q: Which results are given for `CC(O)CC(=O)OCC(COC(=O)CC(C)O)OC(=O)CC(C)O` (stereo not drawn) [GTβHB, Glyceryl Tris (Beta-HydroxyButyrate)]?
A: time for beta-hydroxybutyrate and acetoacetate from GTβHB to return to pre-administration levels: ≤ 24 h; period within which GTβHB is cleared by the body (po): ≤ 24 h
